Experimental data taken from patent US11505574B2, “Modulation of P53 for the treatment of cancer” (THE REGENTS OF THE UNIVERSITY OF CALIFORNIA, priority 2016, dated 2022).
One block for each substance: values may come before it. Bridges are numbered along the chain shown (N, C = ends). Where no end group is shown, it is not given here. [ ]: non-standard residue; d: D form.

What was measured:
RKO cells = test: RKO cell colony formation assay (peptides); assay type: cell-based, human; details: 5 μM, 3.125 ng/mL doxorubicin 48 hours (FIG. 34D)
Experimental: (§1) For the experiments shown in FIG. 34D, RKO cells were seeded on a 6-well plate at a seed density of 2×10^3 cells per well. The following day the cells were treated with 5 μM Pen-Ctrl, 5 μM Pen-Pep23, or 5 μM Pen-Pep8. The following day, 3.125 ng/mL doxorubicin was added to the cells for 48 hours. Subsequently, the cell media was changed every 3 days until colonies were visible. The cells were fixed and stained with crystal violet.

MCF7 cells = test: MCF7 cell colony formation assay (peptides); assay type: cell-based, human; details: MCF7 cells; 5 μM; 6.25 ng/mL doxorubicin 48 hours (FIG. 34C)
Experimental: In order to test the effect of the RBM38 and eIF4E peptides on cancer cell colony formation, MCF7 cells were seeded in 6-well plates at a density of 1×10^3 cells per well. The following day, cells were treated with peptides. In order to form stable complexes with PEP1, 100 μl of serum-free DMEM was added to individual Eppendorf tubes. Control (SEQ ID NO:11), RBM38, and eIF4E peptides were added at a concentration of 375 nM and then 7.5 μg of PEP1 was added to each peptide (20:1). The complexes were incubated for 20 minutes at room temperature and then added dropwise to cells. Cell media was changed every three days until colonies were visible. The cells were fixed and then stained with crystal violet.
In order to test the effect of a combination treatment comprising peptides of the present invention and a chemotherapeutic agent on cancer cell colony formation, MCF7 cells were seeded in 6-well plates at a density of 1×10^3 cells per well. The following day, cells were treated with peptides. In order to form stable complexes with PEP1, 100 μL of serum-free DMEM was added to individual Eppendorf tubes. Control, RBM38, eIF4E, and peptide-8 peptides were added at a concentration of 375 nM and then 7.5 μg of PEP1 was added to each peptide (20:1). The complexes were incubated for 20 minutes at room temperature and then added dropwise to cells. 20 minutes after addition of peptide complexes, 3.125 ng/mL doxorubicin was added to the cells. Cell media was changed every three days until colonies were visible. The cells were fixed and then stained with crystal violet.
as §1, with “34C, MCF7” for “34D, RKO”, “1×10^3” for “2×10^3”, “Pen-Ctrl” for “Pen-Ctrl, 5 μM Pen-Pep23,”, “Pen-Pep23.” for “Pen-Pep8.”, “6.25” for “3.125”

[1] = system: tumor cell colony formation; test: Tumor cell colony formation assay, cell line not stated (FIGS. 13C, 20D); assay type: cell-based; details: with and without doxorubicin 6.25 ng/mL; versus Pen-Ctrl (FIG. 20D)
p53 [2] = test: Western blot for p53 and downstream targets in MCF7 cells treated with peptides; assay type: cell-based, human; details: MCF7 cells; 2.5 μM; 18 hours (FIG. 32C)
HaCaT cells = test: HaCaT cell colony formation assay; assay type: cell-based; details: HaCaT cells (mutant p53); 10 μM for 20 minutes then 0.5 ng/mL doxorubicin 18 hours (FIG. 37D)
Experimental: For the experiments shown in FIG. 37D, HaCaT and MiaPaCa2 cells were grown in 6-well plates at 500 cells per well. The following day, 10 μM Pen-Ctrl (SEQ ID NO:10), Pen-Pep23 (SEQ ID NO:9), or Pen-Pep8 (SEQ ID NO:50) were added to the cells for 20 minutes followed by treatment with 0.5 ng/mL doxorubicin (for HaCaT cells) or 0.25 ng/mL doxorubicin (for miaPaCa2 cells) for 18 hours, then the media was changed to fresh DMEM. After colonies formed they were fixed (i.e., using 7:1 MeOH:glacial acetic acid) and stained with crystal violet.

p53 [3] = test: Western blot for p53 and downstream targets in RKO cells treated with peptides; assay type: cell-based, human
[4] = system: MIA-PaCa-2 pancreatic cancer cells; test: MIA-PaCa-2 cell colony formation assay (peptides); assay type: cell-based, human; details: miaPaCa2 cells (mutant p53); 10 μM for 20 minutes then 0.25 ng/mL doxorubicin 18 hours (FIG. 37D)
Text: […] […] After colonies formed they were fixed (i.e., using 7:1 MeOH:glacial acetic acid) and stained with crystal violet.

mutant p53 (R248W) = test: Western blot for mutant p53 in MIA-PaCa-2 cells treated with oligonucleotides; assay type: cell-based; details: p53 R248W (FIGS. 29A, 29B)
Text: FIGS. 29A-29C show data illustrating the effects of oligonucleotides of the present invention with respect to wild type and mutant p53. […] Oligonucleotide sequences were as follows: M3, SEQ ID NO:14; 14A/G, SEQ ID NO:20; 14U/G, SEQ ID NO:49; 15A, SEQ ID NO:21; 6A/G, SEQ ID NO:45; 6U/G, SEQ ID NO:46; 10A/G, SEQ ID NO:47; 10 U/G, SEQ ID NO:48.
FIGS. 29A and 29B show the results of experiments exploring the effects of oligonucleotides of the present invention on wild type and mutant p53. Oligonucleotides M3, 14A/G, 15A, and 6U/G were used to treat MCF7 cells expressing wild type p53 and MIA-PaCa-2 cells expressing mutant p53 (R248W). […] The effect was limited to the 6U/G oligonucleotide. […] Oligonucleotide sequences were as follows: M3, SEQ ID NO:14; 14A/G, SEQ ID NO:20; 14U/G, SEQ ID NO:49; 15A, SEQ ID NO:21; 6A/G, SEQ ID NO:45; 6U/G, SEQ ID NO:46; 10A/G, SEQ ID NO:47; 10 U/G, SEQ ID NO:48.

p53 [5] = test: Western blot for p53 in MCF7 cells treated with oligonucleotides; assay type: cell-based, human; details: MCF7 cells (FIG. 29A)
MCF7 tumor spheres = test: MCF7 tumor sphere assay; assay type: cell-based, human; details: MCF7 cells; 150 nM with 3 μg PEP1; 3.125 ng/mL doxorubicin; 7 days (FIG. 36C)
Experimental: For the experiments shown in FIG. 34E, MCF7 cells were plated at a density of 20,000 cells per well using 2 mL Mammocult media in 6-well ultra-low adherent plates. The following day, cells were treated with Pen-Ctrl or Pen-Pep8 at a concentration of 5 μM. Peptides were added to each well for 20 minutes followed by 6.25 ng/mL doxorubicin. Cells were grown for 7 days and then the number of tumor spheres that were larger than 50 μm in diameter were counted (i.e., 20 10× photos were randomly taken and tumor spheres counted from the digital photos). For the graph shown in FIG. 34F, statistical analysis was performed using the student's t-test (n=3; *p≤0.05).
For the experiments shown in FIG. 36C, MCF7 cells were plated at a density of 20,000 cells per well using 2 mL Mammocult media in 6-well ultra-low adherent plates. The following day, cells were treated with 150 nM Cyc-Ctrl or Cyc-Pep8 (SEQ ID NO:5). 150 nM Cyc-Ctr/Pep8 was incubated in 100 μL serum-free DMEM with 3 μg PEP1 for 25 minutes before being added to the cells. After 20 minutes, 3.125 ng/mL doxorubicin was added to the cells for 7 days. Cells were grown for 7 days and then tumor spheres were counted that were larger than 50 μm in diameter (i.e., 20 10× photos were randomly taken and tumor spheres were counted from the digital photos).

eIF4E (His-tagged) = eIF4E (His-tagged) (Homo sapiens, UniProt P06730); test: Pulldown of His-tagged eIF4E by peptides bound to TentaGel resin; assay type: binding; details: linear and cyclized Pep8 on TentaGel resin; 2 μg purified eIF4E overnight (FIG. 36A)
Experimental: The peptides bound to Tentagel™ resin were incubated with His-eIF4E overnight and then washed extensively before being eluted with SDS-PAGE lysis buffer followed by Western blot assay for His-eIF4E. Lane #1: peptide-8 (SEQ ID NO:1); Lane #2: Cyc-8 peptide (SEQ ID NO:5); Lane #3: kAmi-8 peptide (SEQ ID NO:8); Lane #4: Ami-8 peptide (SEQ ID NO:7).
For the experiments shown in FIG. 36A, linear and cyclized versions of Pep8 (i.e., peptides having the amino acid sequences set forth in SEQ ID NOS:1, 5, 7, and 8) were synthesized and bound to TentaGel resin. Resin was washed 3× with 1× lysis buffer, and then incubated with 1× lysis buffer+0.3% BSA for 1 hour while rotating in a cold room. Next, resin was incubated with 1× lysis buffer+0.3% BSA+2 μg purified eIF4E (His-tagged) overnight. Next, resin was washed with 1× lysis buffer+0.3% BSA 3 times, followed by washing with 1× lysis buffer with no Triton X-100 three times. Finally, elution was performed with 1×SDS-loading buffer (70 μl) to load all onto a 12% SDS-PAGE gel for Western blot for His-tagged eIF4E.

Sequence of eIF4E (His-tagged) (P06730 whole entry): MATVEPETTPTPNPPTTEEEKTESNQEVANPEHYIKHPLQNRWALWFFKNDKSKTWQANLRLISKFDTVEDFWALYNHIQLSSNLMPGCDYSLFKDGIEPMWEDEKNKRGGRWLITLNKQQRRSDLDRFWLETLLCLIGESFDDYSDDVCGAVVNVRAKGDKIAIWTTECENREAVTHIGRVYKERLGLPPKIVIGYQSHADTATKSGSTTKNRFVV

Substance: RQIKIWFQNRRMKWKKIGYQSHADTATKSGSTTKNRFVV [Pen-eIF4E, Penetratin fused to eIF4E peptide]
colony formation, sensitization to low-dose doxorubicin (RKO cells): sensitized MCF7 and RKO cells to low-dose doxorubicin
colony formation, sensitization to low-dose doxorubicin (MCF7 cells): sensitized MCF7 and RKO cells to low-dose doxorubicin
cell colony formation, combination with doxorubicin [1]: striking synergistic effect
p53 expression (Western blot) (p53 [2]): induced p53 expression
colony formation, sensitization to low-dose doxorubicin (HaCaT cells): sensitized to low-dose doxorubicin
sensitization to low-dose etoposide (p53 Western blot) (p53 [3]; RKO cells, 1.5 μM for 20 minutes then 0.125 ng/mL etoposide 18 hours (FIG. 34I)): also to low-dose etoposide
sensitization to low-dose doxorubicin (p53 Western blot) (p53 [3]; RKO cells, 1.5 μM for 20 minutes then 6.25 ng/mL doxorubicin 18 hours (FIG. 34I)): sensitized to low-dose doxorubicin
p53 expression (Western blot) (p53 [3]; RKO cells, 2.5 μM, 18 hours (FIG. 32B)): induced p53 expression
protein expression of p53 and downstream target MDM2 (Western blot) (p53 [3]; RKO cells, 5 μM Penetratin fusion, 18 hours (FIG. 1F)): enhanced the protein expression of p53 and the downstream target MDM2
colony formation, sensitization to low-dose doxorubicin [4]: sensitized to low-dose doxorubicin

Substance: UUUGUUUUUUGUUU (listed as RNA, chemistry not given here) [6U/G]
p53 expression in cells expressing mutant p53 (mutant p53 (R248W)): downregulated expression
p53 expression in cells expressing wild type p53 (p53 [5]): unregulated p53 expression

binding of His-tagged eIF4E (pulldown, Western blot) (eIF4E (His-tagged)): bound the most eIF4E
Substance: cYPYAASPAc ([dC]YPYAASPA[dC]; disulfide 1-10 (inferred)) [Cyc-8, disulfide cyclic 10-mer of peptide-8]
tumor spheres larger than 50 μm in diameter, sensitization to low-dose doxorubicin (MCF7 tumor spheres): sensitized MCF7 tumor spheres to low-dose doxorubicin treatment
p53 expression in combination with low-dose doxorubicin, cyclized versus linear peptide (p53 [3]; 6.25 ng/mL doxorubicin (FIG. 23E)): stronger effect in combination with low-dose doxorubicin
upregulation of p53 (Western blot), cyclized versus linear peptide (p53 [3]; 25 nM, 50 nM, 150 nM, 375 nM peptide (FIGS. 23A-23D)): stronger upregulation of p53
p53 expression, potency compared to other forms of Pep8 (Western blot) (p53 [3]; RKO cells, 25 nM, 50 nM, 150 nM or 375 nM with PEP1 at 20:1 molar ratio, 18 hours (FIG. 36B)): increased potency compared to other forms of Pep8, as shown by an increase of p53 with the addition of only 25 nM of the peptide
protein expression of p53 and downstream target MDM2 (Western blot) (p53 [3]; RKO cells, 375 nM peptide with 7.5 μg PEP1 (20:1), 18 hours (FIG. 1E)): enhanced the protein expression of p53 and the downstream target MDM2
protein expression of p53 and downstream target MDM2 (Western blot) (p53 [3]; RKO cells, 375 nM peptide with 7.5 μg PEP1 (20:1), 18 hours (FIG. 1E), listed as cyclized version of peptide-8): able to increase p53 protein expression
